Series [1] in a line: Solubility at different pH's, chemiluminescent nitrogen detector (C.3.b). The format is physicochemical. As to conditions: for solubility: pH 2.3, aqueous buffer, read-out: Solubility C.3.b. pH = 2.3 mg/ml. The text has this: In a second method the solubility of a compound at different pH's can be measured with the use of a chemiluminescent nitrogen detector (see example C.3.b).
The solubility of a compound, at different pH's, can also be measured with the use of a cherniluminescent nitrogen detector (see Table F-3).

The target in series [2] is histone deacetylase (HeLa nuclear extracts). The series can be described thus: In vitro assay for inhibition of histone deacetylase (HDAC Fluorescent Activity Assay, Fluor de Lys). The format is biochemical. As to conditions: Fluor de Lys substrate. From the text: The in vitro assay for inhibition of histone deacetylase (see example C.1) measures the inhibition of HDAC enzymatic activity obtained with the compounds of formula (I).
The HDAC Fluorescent Activity Assay/Drug Discovery Kit of Biomol (cat.No: AK-500-0001) was used. The HDAC Fluorescent Activity Assay is based on the Fluor de Lys (Fluorogenic […] deAcetylase Lysyl) substrate and developer combination. The Fluor de Lys substrate, comprises an acetylated lysine side chain. Deacetylation of the substrate sensitizes the substrate so that, in the second step, treatment with the Fluor de Lys developer produces a fluorophore.
After 30 min, 1 volume of the developer was added. […] For each experiment, controls (containing HeLa nuclear extract and buffer), a blank incubation (containing buffer but no HeLa nuclear extract) and samples (containing compound dissolved in DMSO and further diluted in buffer and HeLa nuclear extract) were run in parallel. […] All sample were tested 4 times. In each test the blank value was substracted from both the control and the sample values. The control sample represented 100% of substrate deactylation. For each sample the fluorescence was expressed as a percentage of the mean value of the controls. […] Herein the effects of test compounds are expressed as pIC50 (the negative log value of the IC50-value) (see Table F-3).

Series [3] deals with A2780 ovarian carcinoma cells. As to the kind of experiment: Antiproliferative activity on A2780 cells (MTT). The format is cell-based, human. As to conditions: four days of incubation; for IC50: Homo sapiens, A2780, 96 h, read-out: Cellular activity pIC50 C.2. (converted). The protocol: Cellular activity of the compounds of formula (I) was determined on A2780 tumour cells using a […] assay for cell toxicity or survival (Mosmann Tim, Journal of Immunological Methods 65: 55-63, 1983)(see example C.2).
All compounds tested were dissolved in DMSO and further dilutions were made in culture medium. Final DMSO concentrations never exceeded 0.1% (v/v) in cell proliferation assays. Controls contained A2780 cells and DMSO without compound and blanks contained DMSO but no cells. MTT was dissolved at 5 mg/ml in PBS. A glycine buffer comprised of 0.1 M glycine and 0.1 M NaCl buffered to pH 10.5 with NaOH (1 N) was prepared (all reagents were from Merck).
The human A2780 ovarian carcinoma cells (a kind gift from Dr. T. C. Hamilton [Fox Chase Cancer Centre, Pennsylvania, USA]) were cultured in RPMI 1640 medium supplemented with 2 mM L-glutamine, 50 μg/ml gentamicin and 10% fetal calf serum.
Cells were routinely kept as monolayer cultures at 37° C. in a humidified 5% CO2 atmosphere. Cells were passaged once a week using a trypsin/EDTA solution at a split ratio of 1:40. All media and supplements were obtained from Life Technologies. Cells were free of mycoplasma contamination as determined using the Gen-Probe Mycoplasma Tissue Culture kit (supplier: BioMérieux).
Cells were seeded in NUNC™ 96-well culture plates (Supplier: Life Technologies) and allowed to adhere to the plastic overnight. Densities used for plating were 1500 cells per well in a total volume of 200 μl medium. After cell adhesion to the plates, medium was changed and drugs and/or solvents were added to a final volume of 200 μl. Following four days of incubation, medium was replaced by 200 μl fresh medium and cell density and viability was assessed using an MTT-based assay. To each well, 25 μl […] solution was added and the cells were further incubated for 2 hours at 37° C. The medium was then carefully aspirated and the blue MTT-formazan product was solubilized by addition of 25 μl glycine buffer followed by 100 μl of DMSO. […] Within an experiment, the results for each experimental condition are the mean of 3 replicate wells. For initial screening purposes, compounds were tested at a single fixed concentration of 10^−6 M. For active compounds, the experiments were repeated to establish full concentration-response curves. For each experiment, controls (containing no drug) and a blank incubation (containing no cells or drugs) were run in parallel. The blank value was subtracted from all control and sample values. For each sample, the mean value for cell growth (in absorbance units) was expressed as a percentage of the mean value for cell growth of the control. […] Herein the effects of test compounds are expressed as pIC50 (the negative log value of the IC50-value)(see Table F-3).

SMILES strings stand for the structures. ≈ marks a conversion by molar mass, not a printed value.

In general, melting point refers to the temperature of the solid-liquid transition. Turning to `O=C(NO)c1cnc(N2CCN(C(/C=C/c3ccc(Cl)cc3)CN3CCOCC3)CC2)nc1` (stereo not drawn) (hydrate or solvate) [Compound 2], the melting point is 135 °C.
As for `CN(C)C(=O)C(C)(/C=C/c1ccc(F)cc1)N1CCN(c2ncc(C(=O)NO)cn2)CC1` (stereo not drawn) (hydrate or solvate) [Compound 10], the melting point turned out to be 146 °C.
In the case of `O=C(NO)c1cnc(N2CCN([C@@H](/C=C/c3ccccc3)CO)CC2)nc1` (single isomer, unassigned) [Compound 25], the solubility in series [1] came out at 3400 µg/mL (≈ 9.2 mM). Moreover, the “Enzymatic activity pIC50 C.1.” value in series [2] turned out to be 7.9. Also, in series [3], the “Cellular activity pIC50 C.2.” value is listed as 7.6.
With `O=C(NO)c1cnc(N2CCN([C@@H](/C=C/c3ccccc3)CO)CC2)nc1` (single isomer, unassigned) [Compound 26], in series [1], the “Solubility C.3.b. pH = 2.3 mg/ml” value is recorded as 3.5 mg/ml. The “Enzymatic activity pIC50 C.1.” value in series [2] was 8.3. Also, in series [3], the “Cellular activity pIC50 C.2.” value amounted to 7.2.
For the molecule `O=C(NO)c1cnc(N2CCN([C@@H](/C=C/c3ccc(F)cc3)CO)CC2)nc1` (single isomer, unassigned) [Compound 27], the “Cellular activity pIC50 C.2.” value in series [3] is 7.5.
Consider `O=C(NO)c1cnc(N2CCN([C@H](/C=C/c3ccc(F)cc3)CO)CC2)nc1` (single isomer, unassigned) [Compound 28], for which the “Cellular activity pIC50 C.2.” value in series [3] was 7.5.
On to `O=C(NO)c1cnc(N2CCN([C@@H](/C=C/c3ccc(F)cc3)CO)CC2)nc1` (single isomer, unassigned) [Compound 33], for which the “Cellular activity pIC50 C.2.” value in series [3] is on record as 8.2.
`O=C(NO)c1cnc(N2CCN([C@H](/C=C/c3ccc(F)cc3)CO)CC2)nc1` (single isomer, unassigned) [Compound 34]: in series [3], the “Cellular activity pIC50 C.2.” value was 7.9.
`CC(/C=C/c1ccccc1)N1CCN(c2ncc(C(=O)NO)cn2)CC1` (stereo not drawn) [Compound 7] returned a melting point of 161 °C. In series [1], the solubility was 2000 µg/mL (≈ 5.66 mM). Besides, in series [2], the “Enzymatic activity pIC50 C.1.” value is over 9. Further, the IC50 in series [3] was 31.6 nM.
For the molecule `O=C(NO)c1cnc(N2CCN(C(/C=C/c3ccc(F)cc3)CO)CC2)nc1` (stereo not drawn) [Compound 8], the solubility in series [1] came to 2900 µg/mL (≈ 7.49 mM). Besides, the IC50 in series [3] is 12.6 nM.
The molecule `CC(=O)OCC(/C=C/c1ccccc1)N1CCN(c2ncc(C(=O)NO)cn2)CC1` (stereo not drawn) [Compound 9] registered a melting point of 161 °C. In addition, the “Enzymatic activity pIC50 C.1.” value in series [2] turned out to be 9.4. Moreover, the IC50 in series [3] is 25.1 nM.
Consider `CN(C)C(=O)C(C)(/C=C/c1ccc(F)cc1)N1CCN(c2ncc(C(=O)NO)cn2)CC1` (stereo not drawn) [Compound 10], for which, in series [1], the solubility is 3000 µg/mL (≈ 6.78 mM). Also, the “Enzymatic activity pIC50 C.1.” value in series [2] is 8.4. The IC50 in series [3] is 31.6 nM.
For `COCC(/C=C/c1ccccc1)N1CCN(c2ncc(C(=O)NO)cn2)CC1` (stereo not drawn) [Compound 11], the melting point is 212 °C. In series [1], the solubility was determined as 3100 µg/mL (≈ 8.08 mM). For the same molecule, the “Enzymatic activity pIC50 C.1.” value in series [2] amounted to 9.4. Also, in series [3], the IC50 was 10 nM.
Regarding `Cc1ccc(/C=C/C(CO)N2CCN(c3ncc(C(=O)NO)cn3)CC2)cc1` (stereo not drawn) [Compound 12], in series [1], the solubility is 2100 µg/mL (≈ 5.48 mM). Moreover, the “Enzymatic activity pIC50 C.1.” value in series [2] is 9.0. The IC50 in series [3] was 31.6 nM.
As for `CC(/C=C/c1ccccc1)(C(=O)N1CCOCC1)N1CCN(c2ncc(C(=O)NO)cn2)CC1` (stereo not drawn) [Compound 13], the solubility in series [1] was determined as 3700 µg/mL (≈ 7.93 mM). Besides, in series [2], the “Enzymatic activity pIC50 C.1.” value is reported as 8.8. Further, the IC50 in series [3] is 100 nM.
The matching figures for `CCN(C)C(=O)C(C)(/C=C/c1ccc(F)cc1)N1CCN(c2ncc(C(=O)NO)cn2)CC1` (stereo not drawn) [Compound 14]: 2800 µg/mL (≈ 6.13 mM), 8.5 and 39.8 nM.
For the molecule `CNC(=O)C(/C=C/c1ccccc1)N1CCN(c2ncc(C(=O)NO)cn2)CC1` (stereo not drawn) [Compound 16], in series [1], the solubility is 2800 µg/mL (≈ 7.06 mM). Also, in series [2], the “Enzymatic activity pIC50 C.1.” value amounted to 7.4. Besides, the IC50 in series [3] is 79.4 nM.
Take `O=C(NO)c1cnc(N2CCN(C(/C=C/c3ccccc3)C(=O)N3CCOCC3)CC2)nc1` (stereo not drawn) [Compound 17]: the solubility in series [1] was 2200 µg/mL (≈ 4.86 mM). In addition, in series [2], the “Enzymatic activity pIC50 C.1.” value is 8.8. Also, the IC50 in series [3] is 200 nM.
With `CN(C)CCNC(=O)C(/C=C/c1ccccc1)N1CCN(c2ncc(C(=O)NO)cn2)CC1` (stereo not drawn) [Compound 18], the solubility in series [1] was 3600 µg/mL (≈ 7.94 mM). Moreover, the “Enzymatic activity pIC50 C.1.” value in series [2] worked out at 8.5. Moreover, in series [3], the IC50 is 100 nM.
With `O=C(NO)c1cnc(N2CCN(C(/C=C/c3ccccc3)C(=O)NCCO)CC2)nc1` (stereo not drawn) [Compound 19], the solubility in series [1] amounted to 2600 µg/mL (≈ 6.1 mM). Besides, the “Enzymatic activity pIC50 C.1.” value in series [2] was 8.4. In series [3], the IC50 was 501 nM.
In the case of `CCCCN(C)C(=O)C(C)(/C=C/c1ccc(F)cc1)N1CCN(c2ncc(C(=O)NO)cn2)CC1` (stereo not drawn) [Compound 20], in series [2], the “Enzymatic activity pIC50 C.1.” value amounted to 7.7. Besides, the IC50 in series [3] was 50.1 nM.
On to `O=C(NO)c1cnc(N2CCN(C(/C=C/c3ccccc3)CN3CCOCC3)CC2)nc1` (stereo not drawn) [Compound 21], for which the solubility in series [1] was 2100 µg/mL (≈ 4.79 mM). The “Enzymatic activity pIC50 C.1.” value in series [2] was 7.9. Also, in series [3], the IC50 was 158 nM.
With `CN1CCN(CC(/C=C/c2ccccc2)N2CCN(c3ncc(C(=O)NO)cn3)CC2)CC1` (stereo not drawn) [Compound 22], the solubility in series [1] came out at 4200 µg/mL (≈ 9.3 mM). In series [2], the “Enzymatic activity pIC50 C.1.” value was found to be 7.9. The IC50 in series [3] is 158 nM.
On to `O=C(NO)c1cnc(N2CCN(C(/C=C/c3ccccc3)Cn3ccnc3)CC2)nc1` (stereo not drawn) [Compound 23], for which the “Enzymatic activity pIC50 C.1.” value in series [2] is 8.0. For the same molecule, the IC50 in series [3] was 251 nM.
For the molecule `CCOCC(/C=C/c1ccccc1)N1CCN(c2ncc(C(=O)NO)cn2)CC1` (stereo not drawn) [Compound 24], the solubility in series [1] stood at 4000 µg/mL (≈ 10.1 mM). Also, in series [2], the “Enzymatic activity pIC50 C.1.” value was found to be 8.8. Further, in series [3], the IC50 is 31.6 nM.
As for `O=C(NO)c1ccc(N2CCN(C(/C=C/c3ccc(F)cc3)CO)CC2)nc1` (stereo not drawn) [Compound 31], the melting point is 145 °C. Further, the “Enzymatic activity pIC50 C.1.” value in series [2] worked out at 8.5. Further, the IC50 in series [3] was 39.8 nM.
For the molecule `COCC(/C=C/c1ccc(F)cc1)N1CCN(c2ncc(C(=O)NO)cn2)CC1` (stereo not drawn) [Compound 32], the “Enzymatic activity pIC50 C.1.” value in series [2] is reported as over 9. In addition, the IC50 in series [3] is under 31.6 nM.
As to `CC(/C=C/c1ccccc1)N1CCN(c2ncc(C(=O)NO)cn2)CC1` (stereo not drawn) [Compound 35], in series [2], the “Enzymatic activity pIC50 C.1.” value is listed as 9.6. Moreover, the “Cellular activity pIC50 C.2.” value in series [3] worked out at 7.8.

These data come from patent publication US7947830B2, “Substituted propenyl piperazine derivatives as novel inhibitors of histone deacetylase” (Janssen Pharmaceutica N.V., priority 2004, dated 2011).
